What was measured:
[1] = target: Serine/threonine-protein kinase 17B (Homo sapiens) (UniProt O94768); conditions: Compound concentration 1000.0 nM
[2] = target: Serine/threonine-protein kinase MRCK gamma (Homo sapiens) (UniProt Q6DT37); conditions: Compound concentration 1000.0 nM
[3] = target: Phosphatidylinositol 4-phosphate 5-kinase type-1 alpha (Homo sapiens) (UniProt Q99755); conditions: Compound concentration 1000.0 nM
[4] = target: Serine/threonine-protein kinase Nek4 (Homo sapiens) (UniProt P51957); conditions: Compound concentration 1000.0 nM
[5] = target: Mitogen-activated protein kinase 10 (Homo sapiens) (UniProt P53779); conditions: Compound concentration 1000.0 nM
[6] = test system: Leucine-rich repeat serine/threonine-protein kinase 2 (Homo sapiens), Q5S007 [G2019S]; conditions: Compound concentration 1000.0 nM
[7] = target: Wee1-like protein kinase (Homo sapiens) (UniProt P30291); conditions: Compound concentration 1000.0 nM
[8] = target: Uncharacterized serine/threonine-protein kinase SBK3 (Homo sapiens) (UniProt P0C264); conditions: Compound concentration 1000.0 nM
[9] = target: Serine/threonine-protein kinase 26 (Homo sapiens) (UniProt Q9P289); conditions: Compound concentration 1000.0 nM
[10] = target: SRSF protein kinase 2 (Homo sapiens) (UniProt P78362); conditions: Compound concentration 1000.0 nM
[11] = target: G protein-coupled receptor kinase 4 (Homo sapiens) (UniProt P32298); conditions: Compound concentration 1000.0 nM
[12] = target: Casein kinase II subunit alpha (Homo sapiens) (UniProt P68400); conditions: Compound concentration 1000.0 nM
[13] = target: Serine/threonine-protein kinase haspin (Homo sapiens) (UniProt Q8TF76); conditions: Compound concentration 1000.0 nM
[14] = target: 5'-AMP-activated protein kinase catalytic subunit alpha-2 (Homo sapiens) (UniProt P54646); conditions: Compound concentration 1000.0 nM
[15] = target: T1, GABA-A receptor; anion channel (Rattus norvegicus) (UniProt O09028+P15431+P18506+P18508+P19969+P20236+P23574+P23576+P28471+P28473+P30191+P62813+P63079+P63138+Q91ZM7+Q9ES14); conditions: Compound concentration 10.0 uM
[16] = test system: Tyrosine-protein kinase ABL1 (Homo sapiens), P00519 [F317L]; conditions: Compound concentration 1000.0 nM
[17] = target: T2, Muscarinic acetylcholine receptor M2 (Homo sapiens) (UniProt P08172); conditions: Compound concentration 10.0 uM
T2 sequence (whole entry): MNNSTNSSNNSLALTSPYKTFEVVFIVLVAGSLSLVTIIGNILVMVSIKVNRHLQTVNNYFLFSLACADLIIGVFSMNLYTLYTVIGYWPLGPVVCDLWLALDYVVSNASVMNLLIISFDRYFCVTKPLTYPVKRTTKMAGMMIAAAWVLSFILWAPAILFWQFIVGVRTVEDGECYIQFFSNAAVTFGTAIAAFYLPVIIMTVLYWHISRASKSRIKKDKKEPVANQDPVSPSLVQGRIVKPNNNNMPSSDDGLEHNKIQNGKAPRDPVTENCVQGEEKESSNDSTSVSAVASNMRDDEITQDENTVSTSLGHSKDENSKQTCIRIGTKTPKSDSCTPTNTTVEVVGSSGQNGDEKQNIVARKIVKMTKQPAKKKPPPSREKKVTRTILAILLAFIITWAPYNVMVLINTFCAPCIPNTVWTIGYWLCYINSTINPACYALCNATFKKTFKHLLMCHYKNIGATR

[18] = target: Dual specificity tyrosine-phosphorylation-regulated kinase 2 (Homo sapiens) (UniProt Q92630); conditions: Compound concentration 1000.0 nM
[19] = target: Alpha-2A adrenergic receptor (Homo sapiens) (UniProt P08913); conditions: Compound concentration 10.0 uM
[20] = target: MAP kinase-activated protein kinase 2 (Homo sapiens) (UniProt P49137); conditions: Compound concentration 1000.0 nM
[21] = target: Serine/threonine-protein kinase BRSK2 (Homo sapiens) (UniProt Q8IWQ3); conditions: Compound concentration 1000.0 nM
[22] = target: Discoidin domain-containing receptor 2 (Homo sapiens) (UniProt Q16832); conditions: Compound concentration 1000.0 nM
[23] = target: Calcium/calmodulin-dependent protein kinase type II subunit gamma (Homo sapiens) (UniProt Q13555); conditions: Compound concentration 1000.0 nM
[24] = target: Serine/threonine-protein kinase SBK1 (Homo sapiens) (UniProt Q52WX2); conditions: Compound concentration 1000.0 nM
[25] = target: Peripheral plasma membrane protein CASK (Homo sapiens) (UniProt O14936); conditions: Compound concentration 1000.0 nM
[26] = target: Protein kinase C theta type (Homo sapiens) (UniProt Q04759); conditions: Compound concentration 1000.0 nM
[27] = target: Cyclin-dependent kinase 4 (Homo sapiens) (UniProt P11802); conditions: Compound concentration 1000.0 nM
[28] = target: Calcium/calmodulin-dependent protein kinase type II subunit alpha (Homo sapiens) (UniProt Q9UQM7); conditions: Compound concentration 1000.0 nM
[29] = target: Tyrosine-protein kinase receptor UFO (Homo sapiens) (UniProt P30530); conditions: Compound concentration 1000.0 nM
[30] = target: Sigma non-opioid intracellular receptor 1 (Homo sapiens) (UniProt Q99720); conditions: Compound concentration 10.0 uM
[31] = target: T1, GABA-A receptor; anion channel (Rattus norvegicus); conditions: Compound concentration 10.0 uM; remark: listed apart in the source
[32] = target: Ribosomal protein S6 kinase alpha-5 (Homo sapiens) (UniProt O75582); conditions: Compound concentration 1000.0 nM
[33] = target: Calcium/calmodulin-dependent protein kinase kinase 1 (Homo sapiens) (UniProt Q8N5S9); conditions: Compound concentration 1000.0 nM
[34] = target: Muscarinic acetylcholine receptor M3 (Homo sapiens) (UniProt P20309); conditions: Compound concentration 10.0 uM
[35] = test system: Tyrosine-protein kinase ABL1 (Homo sapiens), P00519 [E255K]; conditions: Compound concentration 1000.0 nM
[36] = target: Serine/threonine-protein kinase/endoribonuclease IRE1 (Homo sapiens) (UniProt O75460); conditions: Compound concentration 1000.0 nM

Sequence of Dual specificity tyrosine-phosphorylation-regulated kinase 2 (Homo sapiens) (Q92630 whole entry): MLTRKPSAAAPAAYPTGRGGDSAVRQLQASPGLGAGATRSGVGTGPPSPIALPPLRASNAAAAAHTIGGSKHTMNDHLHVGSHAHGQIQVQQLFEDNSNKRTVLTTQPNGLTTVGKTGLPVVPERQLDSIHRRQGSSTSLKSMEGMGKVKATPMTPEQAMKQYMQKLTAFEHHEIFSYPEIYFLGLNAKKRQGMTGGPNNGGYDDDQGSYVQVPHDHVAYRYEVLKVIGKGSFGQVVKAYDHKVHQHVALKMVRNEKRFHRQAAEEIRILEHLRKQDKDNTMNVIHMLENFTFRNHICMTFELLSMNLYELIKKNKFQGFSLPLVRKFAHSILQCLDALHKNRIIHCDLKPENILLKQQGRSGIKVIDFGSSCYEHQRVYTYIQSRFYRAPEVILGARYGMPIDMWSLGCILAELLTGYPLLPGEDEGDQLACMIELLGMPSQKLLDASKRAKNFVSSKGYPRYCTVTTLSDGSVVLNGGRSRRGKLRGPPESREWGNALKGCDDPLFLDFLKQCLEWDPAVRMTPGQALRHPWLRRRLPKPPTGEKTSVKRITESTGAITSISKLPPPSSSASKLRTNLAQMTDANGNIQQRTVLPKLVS
Sequence of 5'-AMP-activated protein kinase catalytic subunit alpha-2 (Homo sapiens) (P54646 whole entry, looked up): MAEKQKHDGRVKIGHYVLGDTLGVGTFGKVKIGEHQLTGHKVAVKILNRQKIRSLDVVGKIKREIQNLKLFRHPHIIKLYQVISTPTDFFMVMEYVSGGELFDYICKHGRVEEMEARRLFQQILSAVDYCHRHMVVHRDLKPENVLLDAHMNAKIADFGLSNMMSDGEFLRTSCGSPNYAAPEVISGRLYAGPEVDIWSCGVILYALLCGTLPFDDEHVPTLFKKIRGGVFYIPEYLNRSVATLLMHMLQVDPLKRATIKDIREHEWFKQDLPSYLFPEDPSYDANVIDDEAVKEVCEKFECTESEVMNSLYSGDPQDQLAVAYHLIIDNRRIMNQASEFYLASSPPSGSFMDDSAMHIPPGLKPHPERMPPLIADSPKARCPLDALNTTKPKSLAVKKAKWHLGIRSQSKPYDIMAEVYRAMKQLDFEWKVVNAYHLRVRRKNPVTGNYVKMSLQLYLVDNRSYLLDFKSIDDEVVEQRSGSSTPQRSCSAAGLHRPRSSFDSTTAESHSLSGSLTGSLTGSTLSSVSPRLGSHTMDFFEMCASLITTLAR
Sequence of Muscarinic acetylcholine receptor M3 (Homo sapiens) (P20309 whole entry, looked up): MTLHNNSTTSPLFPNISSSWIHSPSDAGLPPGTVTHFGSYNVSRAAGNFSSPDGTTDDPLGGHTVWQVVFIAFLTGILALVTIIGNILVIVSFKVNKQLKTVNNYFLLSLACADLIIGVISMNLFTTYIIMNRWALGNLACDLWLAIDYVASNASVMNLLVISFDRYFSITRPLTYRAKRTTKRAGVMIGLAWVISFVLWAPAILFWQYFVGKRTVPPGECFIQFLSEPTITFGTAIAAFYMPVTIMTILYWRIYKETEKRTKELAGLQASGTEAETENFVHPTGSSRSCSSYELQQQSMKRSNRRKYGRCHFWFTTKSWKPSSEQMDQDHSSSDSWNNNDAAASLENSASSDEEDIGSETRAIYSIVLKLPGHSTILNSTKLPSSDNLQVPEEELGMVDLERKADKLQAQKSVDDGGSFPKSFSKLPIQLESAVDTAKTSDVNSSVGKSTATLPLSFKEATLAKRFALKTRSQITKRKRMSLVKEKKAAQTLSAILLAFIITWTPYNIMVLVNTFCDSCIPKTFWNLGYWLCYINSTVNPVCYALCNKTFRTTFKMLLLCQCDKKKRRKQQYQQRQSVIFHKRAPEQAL
Sequence of Cyclin-dependent kinase 4 (Homo sapiens) (P11802 whole entry): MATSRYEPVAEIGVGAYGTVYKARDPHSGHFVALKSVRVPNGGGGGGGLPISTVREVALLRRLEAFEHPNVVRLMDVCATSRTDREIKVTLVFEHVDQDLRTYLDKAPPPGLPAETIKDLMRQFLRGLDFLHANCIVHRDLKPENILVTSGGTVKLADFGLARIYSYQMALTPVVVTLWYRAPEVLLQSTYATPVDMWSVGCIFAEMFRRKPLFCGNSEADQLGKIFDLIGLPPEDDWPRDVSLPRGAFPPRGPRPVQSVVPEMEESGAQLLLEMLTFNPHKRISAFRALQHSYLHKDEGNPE
Sequence of G protein-coupled receptor kinase 4 (Homo sapiens) (P32298 whole entry, looked up): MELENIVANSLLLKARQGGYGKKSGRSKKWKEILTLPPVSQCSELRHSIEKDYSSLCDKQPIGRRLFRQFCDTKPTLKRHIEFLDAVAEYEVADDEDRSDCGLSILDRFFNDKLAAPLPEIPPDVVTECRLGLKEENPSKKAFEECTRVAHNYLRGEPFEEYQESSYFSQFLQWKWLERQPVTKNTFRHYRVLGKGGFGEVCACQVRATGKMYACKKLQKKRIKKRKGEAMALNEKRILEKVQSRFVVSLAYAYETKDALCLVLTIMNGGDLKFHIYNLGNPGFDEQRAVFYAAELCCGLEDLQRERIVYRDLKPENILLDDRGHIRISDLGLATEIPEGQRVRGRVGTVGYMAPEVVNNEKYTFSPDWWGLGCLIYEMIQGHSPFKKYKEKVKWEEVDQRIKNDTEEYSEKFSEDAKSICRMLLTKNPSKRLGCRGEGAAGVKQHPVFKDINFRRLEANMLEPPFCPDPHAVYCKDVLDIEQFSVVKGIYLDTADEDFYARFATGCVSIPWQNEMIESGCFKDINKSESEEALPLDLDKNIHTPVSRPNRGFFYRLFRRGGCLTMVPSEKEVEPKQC
Sequence of Mitogen-activated protein kinase 10 (Homo sapiens) (P53779 whole entry): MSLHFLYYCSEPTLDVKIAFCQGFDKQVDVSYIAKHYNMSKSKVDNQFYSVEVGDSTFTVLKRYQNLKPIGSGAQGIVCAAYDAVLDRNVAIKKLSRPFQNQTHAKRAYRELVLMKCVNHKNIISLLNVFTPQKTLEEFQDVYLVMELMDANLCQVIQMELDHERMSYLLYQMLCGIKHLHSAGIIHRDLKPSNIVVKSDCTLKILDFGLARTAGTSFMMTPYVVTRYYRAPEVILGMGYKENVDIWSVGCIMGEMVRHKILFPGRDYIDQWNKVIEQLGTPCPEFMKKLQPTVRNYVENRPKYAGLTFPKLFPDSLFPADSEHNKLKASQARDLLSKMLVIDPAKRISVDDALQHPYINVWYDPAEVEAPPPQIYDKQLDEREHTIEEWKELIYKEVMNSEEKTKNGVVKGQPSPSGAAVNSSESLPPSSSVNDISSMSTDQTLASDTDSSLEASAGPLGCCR
Sequence of SRSF protein kinase 2 (Homo sapiens) (P78362 whole entry, looked up): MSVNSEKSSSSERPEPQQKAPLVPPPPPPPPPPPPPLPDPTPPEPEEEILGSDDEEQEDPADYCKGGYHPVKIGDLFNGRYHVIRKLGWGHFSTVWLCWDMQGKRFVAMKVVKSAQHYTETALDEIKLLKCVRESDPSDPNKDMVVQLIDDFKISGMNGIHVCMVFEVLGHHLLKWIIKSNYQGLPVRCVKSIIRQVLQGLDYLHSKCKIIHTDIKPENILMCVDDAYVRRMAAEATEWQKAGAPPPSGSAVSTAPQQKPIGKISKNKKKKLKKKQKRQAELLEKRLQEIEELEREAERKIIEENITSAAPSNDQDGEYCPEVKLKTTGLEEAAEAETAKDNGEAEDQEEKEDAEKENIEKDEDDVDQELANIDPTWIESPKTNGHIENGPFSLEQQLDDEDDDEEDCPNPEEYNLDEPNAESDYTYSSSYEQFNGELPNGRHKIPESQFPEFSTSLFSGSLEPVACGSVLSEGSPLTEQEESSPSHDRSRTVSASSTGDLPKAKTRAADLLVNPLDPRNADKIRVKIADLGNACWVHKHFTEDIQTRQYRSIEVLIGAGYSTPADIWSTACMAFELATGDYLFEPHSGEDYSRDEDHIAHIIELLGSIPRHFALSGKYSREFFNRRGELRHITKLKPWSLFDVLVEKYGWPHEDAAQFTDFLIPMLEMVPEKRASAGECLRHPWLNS
Sequence of Tyrosine-protein kinase receptor UFO (Homo sapiens) (P30530 whole entry): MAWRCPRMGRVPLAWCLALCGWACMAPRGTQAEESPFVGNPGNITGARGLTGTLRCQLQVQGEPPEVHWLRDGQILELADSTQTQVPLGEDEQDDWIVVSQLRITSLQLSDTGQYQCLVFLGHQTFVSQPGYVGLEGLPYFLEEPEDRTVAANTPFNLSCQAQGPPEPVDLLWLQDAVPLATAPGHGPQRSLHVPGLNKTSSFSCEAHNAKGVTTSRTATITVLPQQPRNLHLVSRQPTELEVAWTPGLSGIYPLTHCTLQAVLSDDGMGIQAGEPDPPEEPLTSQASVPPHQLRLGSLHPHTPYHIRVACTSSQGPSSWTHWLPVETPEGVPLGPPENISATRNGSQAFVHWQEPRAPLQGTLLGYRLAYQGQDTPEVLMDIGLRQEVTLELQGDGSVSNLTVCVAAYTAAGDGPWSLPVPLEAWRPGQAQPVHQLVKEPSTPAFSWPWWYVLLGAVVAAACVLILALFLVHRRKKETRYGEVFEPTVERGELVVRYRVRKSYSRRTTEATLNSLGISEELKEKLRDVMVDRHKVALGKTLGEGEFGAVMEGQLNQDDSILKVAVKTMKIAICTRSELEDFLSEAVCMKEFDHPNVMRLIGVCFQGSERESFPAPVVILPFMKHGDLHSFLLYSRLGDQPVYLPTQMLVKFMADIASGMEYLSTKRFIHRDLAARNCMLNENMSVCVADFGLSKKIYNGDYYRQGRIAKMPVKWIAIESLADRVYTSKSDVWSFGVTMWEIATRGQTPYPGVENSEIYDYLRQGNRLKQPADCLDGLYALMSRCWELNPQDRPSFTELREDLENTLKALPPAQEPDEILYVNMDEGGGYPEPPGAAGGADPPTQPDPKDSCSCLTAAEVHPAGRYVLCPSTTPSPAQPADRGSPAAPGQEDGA
Sequence of Sigma non-opioid intracellular receptor 1 (Homo sapiens) (Q99720 whole entry): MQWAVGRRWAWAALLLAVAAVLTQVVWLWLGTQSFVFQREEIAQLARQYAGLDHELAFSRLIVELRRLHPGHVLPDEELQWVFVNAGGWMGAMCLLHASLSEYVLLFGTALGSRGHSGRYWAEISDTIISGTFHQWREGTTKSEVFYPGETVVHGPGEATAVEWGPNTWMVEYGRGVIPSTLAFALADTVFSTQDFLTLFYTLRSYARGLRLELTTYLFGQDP

O=C(O)[C@H]1[C@H](Cn2nnc3ccccc3c2=O)CC[C@@H]1C(=O)c1ccc(OCCC2CCOCC2)cc1 [BAY-7598]
inactive: residual activity [1] 100% | residual activity [2] 93% | residual activity [3] 88% | residual activity [4] 84% | residual activity [5] 83% | residual activity [6] 100% | residual activity [7] 100% | residual activity [8] 100% | residual activity [9] 87% | residual activity [10] 100% | residual activity [11] 82% | residual activity [12] 100% | residual activity [13] 84% | residual activity [14] 100% | inhibition [15] 6.48% | residual activity [16] 81% | inhibition [17] 1.41% | residual activity [18] 93% | inhibition [19] -5.14% | residual activity [20] 89% | residual activity [21] 100% | residual activity [22] 100% | residual activity [23] 90% | residual activity [24] 68% | residual activity [25] 100% | residual activity [26] 80% | residual activity [27] 96% | residual activity [28] 100% | residual activity [29] 100% | inhibition [30] 6.09% | inhibition [31] 7.4% | residual activity [32] 100% | residual activity [33] 81% | inhibition [34] -7.32% | residual activity [35] 75% | residual activity [36] 82%

O=C(O)[C@@H]1[C@@H](Cn2nnc3ccccc3c2=O)CC[C@H]1C(=O)c1ccc(OCCC2CCOCC2)cc1 [BAY-694]
inactive: residual activity [1] 99% | residual activity [2] 100% | residual activity [3] 94% | residual activity [4] 56% | residual activity [5] 100% | residual activity [6] 100% | residual activity [7] 93% | residual activity [9] 100% | residual activity [10] 100% | residual activity [11] 100% | residual activity [12] 87% | residual activity [13] 88% | residual activity [14] 100% | inhibition [15] 13.1% | residual activity [16] 92% | inhibition [17] -2.32% | residual activity [18] 90% | inhibition [19] 5.09% | residual activity [20] 100% | residual activity [21] 100% | residual activity [22] 100% | residual activity [23] 100% | residual activity [24] 100% | residual activity [25] 100% | residual activity [26] 85% | residual activity [27] 86% | residual activity [28] 100% | residual activity [29] 100% | inhibition [30] 29.3% | inhibition [31] 10.2% | residual activity [32] 100% | residual activity [33] 100% | inhibition [34] 5.09% | residual activity [35] 84% | residual activity [36] 88%
active: residual activity [8] 43%

— ChEMBL document CHEMBL4507264, “Data for DCP probe BAY-7598” (2021)
